For 19 compounds, IC50 and melting point results are on record in patent US8153647B2, “Aryl- and heteroaryl-ethyl-acylguanidine derivatives, their preparation and their application in therapeutics” (Sanofi-Aventis, priority 2006, dated 2012).

Each structure is given as a SMILES string. Where a name gives a salt, the structure may show the parent alone.

One series addresses T1, Recombinant human renin (Homo sapiens, UniProt P00797).
T1 construct: made in house; host or cells: Chinese Hamster Ovary (CHO) cells
T1 sequence (P00797 67-406): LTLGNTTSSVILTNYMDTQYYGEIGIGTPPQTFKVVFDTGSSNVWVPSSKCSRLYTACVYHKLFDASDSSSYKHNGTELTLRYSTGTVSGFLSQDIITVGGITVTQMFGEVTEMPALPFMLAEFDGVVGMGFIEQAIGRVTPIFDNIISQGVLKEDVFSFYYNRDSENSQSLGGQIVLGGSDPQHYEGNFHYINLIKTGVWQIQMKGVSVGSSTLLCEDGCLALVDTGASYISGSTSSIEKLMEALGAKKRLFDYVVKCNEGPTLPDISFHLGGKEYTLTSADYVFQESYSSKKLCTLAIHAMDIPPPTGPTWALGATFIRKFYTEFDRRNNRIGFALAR
The experiment in a line: Renin inhibition in a purified system (FRET, synthetic substrate Dabcyl-gaba-IHPFHLVIHT-EDANS). The series is classed as biochemical. The conditions noted are these: renin 10 nM, substrate 10 μM, 2 h, room temperature, pH 8. The protocol: The protocol for the determination in a purified system of the in vitro IC50s of the compounds of the invention is described hereafter.
Recombinant human renin (expressed as prorenin in Chinese Hamster Ovary and purified after activation in active renin using standard methods) at 10 nM concentration is incubated with test compounds at various concentrations and the synthetic substrate Dabcyl-gaba-IHPFHLVIHT-EDANS (Bachem) at 10 μM for 2 h at room temperature, in 0.05 M Tris buffer pH 8 containing 0.1 M NaCl, 2.5 mM EDTA and 1.25 mg/ml bovine serum albumin. Increase in fluorescence (due to the Fluorescence Resonance Energy Transfer) is recorded at an excitation wave-length of 330 nm and at an emission wave length of 485 nm in a microplate spectrofluorometer. IC50 values are calculated from the percentage of inhibition of renin activity as a function of test compound concentration.
`COCCCOc1cc(CCC(=O)NC(=N)N)ccc1-c1ccc(CN2CCC(N(C)C)CC2)cc1` [Compound 2, N-[amino(imino)methyl]-3-[4′-{[4-(dimethylamino)piperidin-1-yl]methyl}-2-(3-methoxypropoxy)biphenyl-4-yl]propanamide hydrochloride]: the IC50 was 19 nM. Regarding `COCCCOc1cc(CCC(=O)NC(=N)NCCc2ccccn2)ccc1-c1ccc(CN2CCC(N(C)C)CC2)cc1` [Compound 6], the IC50 came out at 100 nM. For the compound `COCCCOc1cc(CCC(=O)NC(=N)NCCC(C)C)ccc1-c1ccc(CN2CCC(N(C)C)CC2)cc1` [Compound 11], the IC50 was determined as 23 nM. For `COCCCOc1cc(CCC(=O)NC(=N)N)ccc1-c1ccc(CN2CCCCC2)cc1` [Compound 13, N-[amino(imino)methyl]-3-[2-(3-methoxypropoxy)-4′-(piperidin-1-ylmethyl)biphenyl-4-yl]propanamide hydrochloride], the IC50 came out at 79 nM. `COCCCOc1cc(CCC(=O)NC(=N)N)ccc1-c1cccnc1` [Compound 21, hydrochloride]: the IC50 was 98 nM.

Take `COCCCOc1cc(C(C)(C)CC(=O)NC(=N)N)ccc1-c1ccc(CN2CCC(N(C)C)CC2)cc1` [Compound 22]: the IC50 came out at 10 nM. Turning to `CCCNC(=N)NC(=O)CC(C)(C)c1ccc(-c2ccc(C(=O)N3CCN(C)CC3)cc2)c(OCCCOC)c1` [Compound 25, N-[imino(propylamino)methyl]-3-{2-(3-methoxypropoxy)-4′-[(4-methylpiperazin-1-yl)carbonyl]biphenyl-4-yl}-3-methylbutanamide hydrochloride], the IC50 was found to be 228 nM. Still for that read-out and setting: to `CCCCNC(=N)NC(=O)CCc1ccc(-c2ccc(CN3CCN(CC(=O)N(C)C)CC3)cc2)c(OCCCOC)c1` [Compound 30] belongs 70 nM.

In the case of `CCCCNC(=N)NC(=O)CCc1ccc(-c2ccc(CNCC(c3ccccc3)N(C)C)cc2)c(OCCCOC)c1` (stereo not shown) [Compound 48, N-butyl-N′-{3-[4′-[(2-dimethylamino-2-phenyl-ethylamino)-methyl]-2-(3-methoxy-propoxy)-biphenyl-4-yl]-propionyl}-guanidine, trifluoro-acetic acid salt], the IC50 was found to be 143 nM. Consider `COCCCOc1cc(CCC(=O)NC(=N)N)ccc1-c1ccc(CN2CCN(C)CC2=O)cc1` [Compound 78], for which the IC50 was 42 nM. With `COCCCOc1cc(CCC(=O)NC(=N)N)ccc1-c1nccs1` [Compound 157], the IC50 came to 126 nM. For the compound `COCCCOc1cc(CCC(=O)NC(=N)N)ccc1-c1ccc(CN2CCN(C)C2=O)cc1` [Compound 173], the IC50 is 53 nM.

For the compound `COCCCOc1cc(CCC(=O)NC(=N)N)ccc1-c1cccc(CN2CCCCC2=O)c1` [Compound 179], the IC50 was 19 nM. In the case of `CNC(=N)NC(=O)CCc1ccc(-c2ccc(Cl)c(CS(=O)(=O)C(C)(C)C)c2)c(OCCCOC)c1` [Compound 194, 3-{3′-[(tert-butylsulfonyl)methyl]-4′-chloro-2-(3-methoxypropoxy)biphenyl-4-yl}-N-(methylcarbamimidoyl)propanamide hydrochloride], the IC50 was 48 nM.

Tested on in another series: not given
Test: not given
Conditions: not given
Turning to `CNC(=N)NC(=O)CCc1ccc(-c2cccc(N(C)C(=O)N3CCOCC3)c2)c(OCCCOC)c1.Cl`, the melting point was 54 to 55 °C.

In turn, `COCCCOc1cc(CCC(=O)NC2=NC(=O)C(C)(C)CN2)ccc1-c1ccc(CN2CCC(N(C)C)CC2)cc1.Cl` displayed a melting point of 132 °C. In the case of `COCCCOc1cc(CCC(=O)NC(=N)NCCc2ccccn2)ccc1-c1ccc(CN2CCC(N(C)C)CC2)cc1` (as salt: HCl) [Compound 6], the melting point amounted to 128 °C. With `COCCCOc1cc(C(C)(C)CC(=O)NC(=N)N)ccc1-c1ccc(CN2CCC(N(C)C)CC2)cc1` (as salt: HCl) [Compound 22], the melting point was 105.5 °C. On the same count and under the same terms, for `COCCCOc1cc(CCC(=O)NC(=N)N)ccc1-c1ccc(CN2CCN(C)CC2=O)cc1` (as salt: HCl) [Compound 78] the value was 61.5 °C.
